Measurements as given in patent US5401726A, “2'methylidenepyrimidine nucleoside compounds, their use and method for production thereof” (Yoshitomi Pharaceutical Industries, Ltd., priority 1988, dated 1995).
≈ marks a conversion by molar mass, not a printed value.

Experiments:
[1] = solubility in saline at 25 mg/ml, room temperature; assay type: physicochemical
[2] = solubility (general statement); assay type: physicochemical; details: with respect to pharmaceutical production
L1210/c; mouse leukemia = assay: MTT cytotoxicity, in vitro cell growth, L1210/c; assay type: cell-based; details: 72 hr, read-out: IC50 (concentration showing 50% cytotoxity)
Experimental: (§1) Effect of the compounds on in vitro cell growth of various tumor cell lines:
(§2) The assay of cytotoxicity is dependent on the cellular reduction of MTT [3'-(4,5-dimethylthiazol-2-yl)-2,5-diphenyltetrazolium bromide] by the mitochondrial dehydrogenase of viable cells to a blue formazan product which can be measured spectrophotometrically. Cell suspension, 100 μl, containing 10^4 tumor cells with or without test sample was incubated for 72 hr in 5% CO2 -95% air at 37° C. in 96 well microculture plates (Falcol 3072). The 10 μl of MTT (5 mg/ml) in saline was added to each culture well and incubated for 4 hr at 37° C. The formazan crystals were solubilized by the addition of 100 μl of 10% SDS/0.01N HCl to each well, and incubated for 24 hr at 37° C. The plates were then read at 570 nm on the plate reader. The percentage of cytotoxicity was calculated from the formula: [formula]
(§3) 2 '-Deoxy-2'-methylidene-5-fluorocytidine was dissolved in distilled water, and diluted in RPM1 1640 medium. Tumor cell lines were maintained in RPM1 1640 medium (Nissui Seiyaku Co., Ltd., Tokyo, Japan).
(§4) IC50 values gave the concentrations showing the 50% cytotoxity.

B16; mouse melanoma = assay: MTT cytotoxicity, in vitro cell growth, B16; assay type: cell-based; details: 72 hr, read-out: IC50 (concentration showing 50% cytotoxity)
Experimental: as §1, §2, §3, §4

[3] = tested on: CCRF-CEM; human T cell leukemia; assay: MTT cytotoxicity, in vitro cell growth, CCRF-CEM; assay type: cell-based; details: 72 hr, read-out: IC50 (concentration showing 50% cytotoxity)
Experimental: as §1, §2, §3, §4

[4] = tested on: MOLT4; human T cell leukemia; assay: MTT cytotoxicity, in vitro cell growth, MOLT4; assay type: cell-based; details: MOLT-4, 72 hr, read-out: IC50 (concentration showing 50% cytotoxity)
Experimental: as §1, §2, §3, §4

[5] = tested on: U937; human histiocytic leukemia; assay: MTT cytotoxicity, in vitro cell growth, U937; assay type: cell-based; details: U-937, 72 hr, read-out: IC50 (concentration showing 50% cytotoxity)
Experimental: as §1, §2, §3, §4

[6] = tested on: HL60; human promyelocytic leukemia; assay: MTT cytotoxicity, in vitro cell growth, HL60; assay type: cell-based; details: HL-60, 72 hr, read-out: IC50 (concentration showing 50% cytotoxity)
Experimental: as §1, §2, §3, §4

[7] = tested on: PC13; human lung large cell carcinoma; assay: MTT cytotoxicity, in vitro cell growth, PC13; assay type: cell-based; details: PC-13, 72 hr, read-out: IC50 (concentration showing 50% cytotoxity)
Experimental: as §1, §2, §3, §4

Row | Structure (SMILES) | solubility in saline [1] | solubility [2] | IC50 (L1210/c; mouse leukemia) [µg/mL] | IC50 (B16; mouse melanoma) [µg/mL] | IC50 [3] [µg/mL] | IC50 [4] [µg/mL] | IC50 [5] [µg/mL] | IC50 [6] [µg/mL] | IC50 [7] [µg/mL]
1 | C=C1[C@H](n2ccc(N)nc2=O)O[C@H](CO)[C@H]1O [2'-deoxy-2'-methylidenecytidine, reference compound] | not soluble | inferior in solubility | – | – | – | – | – | – | –
2 | C=C1[C@H](n2cc(F)c(N)nc2=O)O[C@H](CO)[C@H]1O [Example 1, 2'-deoxy-2'-methylidene-5-fluorocytidine] | easily soluble | – | 0.33 (≈ 1.28 µM) | 6.9 (≈ 26.8 µM) | 0.14 (≈ 0.544 µM) | 0.036 (≈ 0.14 µM) | 0.44 (≈ 1.71 µM) | 0.04 (≈ 0.156 µM) | 1 (≈ 3.89 µM)
